Where two headings read alike, the source gives them in different places.
Legend:
Assay in all cases: SelectScreen Kinase Profiling, single point inhibition and IC50 for off-target kinases
Type in all cases: biochemical
off-target kinases [1] = molecular target: T1, off-target kinases (Homo sapiens, UniProt P29323); settings: EPHB2, ZLYTE, ATP Km app
T1 sequence (P29323 19-1055): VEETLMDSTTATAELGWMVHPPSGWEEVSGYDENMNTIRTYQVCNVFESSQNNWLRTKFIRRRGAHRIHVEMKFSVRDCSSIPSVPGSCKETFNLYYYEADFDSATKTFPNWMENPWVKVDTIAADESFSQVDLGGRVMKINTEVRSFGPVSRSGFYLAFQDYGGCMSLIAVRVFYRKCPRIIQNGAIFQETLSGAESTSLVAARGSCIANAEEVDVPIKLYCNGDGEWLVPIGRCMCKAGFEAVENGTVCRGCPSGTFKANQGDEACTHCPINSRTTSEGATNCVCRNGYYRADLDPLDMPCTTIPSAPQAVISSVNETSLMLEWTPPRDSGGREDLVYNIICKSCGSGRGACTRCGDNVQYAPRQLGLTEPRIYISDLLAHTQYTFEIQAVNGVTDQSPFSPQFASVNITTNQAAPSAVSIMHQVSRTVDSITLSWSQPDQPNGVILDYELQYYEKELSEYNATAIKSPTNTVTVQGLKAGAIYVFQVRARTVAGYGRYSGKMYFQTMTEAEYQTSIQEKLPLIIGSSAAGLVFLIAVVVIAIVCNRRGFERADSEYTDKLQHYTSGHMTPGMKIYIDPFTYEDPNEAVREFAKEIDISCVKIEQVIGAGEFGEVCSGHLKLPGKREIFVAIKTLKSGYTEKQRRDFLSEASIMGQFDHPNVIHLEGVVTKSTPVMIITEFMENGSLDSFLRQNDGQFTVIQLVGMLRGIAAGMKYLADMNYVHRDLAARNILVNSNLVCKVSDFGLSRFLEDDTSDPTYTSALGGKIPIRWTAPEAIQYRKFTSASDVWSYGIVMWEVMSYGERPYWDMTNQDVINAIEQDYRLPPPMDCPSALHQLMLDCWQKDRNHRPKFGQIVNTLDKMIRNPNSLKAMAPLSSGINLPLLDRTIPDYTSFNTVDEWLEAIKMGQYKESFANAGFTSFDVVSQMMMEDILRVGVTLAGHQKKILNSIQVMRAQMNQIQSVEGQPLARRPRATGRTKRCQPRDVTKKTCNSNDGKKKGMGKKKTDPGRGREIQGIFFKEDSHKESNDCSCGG

off-target kinases [2] = molecular target: T2, off-target kinases (Homo sapiens, UniProt P52564)
T2 sequence (P52564 1-334): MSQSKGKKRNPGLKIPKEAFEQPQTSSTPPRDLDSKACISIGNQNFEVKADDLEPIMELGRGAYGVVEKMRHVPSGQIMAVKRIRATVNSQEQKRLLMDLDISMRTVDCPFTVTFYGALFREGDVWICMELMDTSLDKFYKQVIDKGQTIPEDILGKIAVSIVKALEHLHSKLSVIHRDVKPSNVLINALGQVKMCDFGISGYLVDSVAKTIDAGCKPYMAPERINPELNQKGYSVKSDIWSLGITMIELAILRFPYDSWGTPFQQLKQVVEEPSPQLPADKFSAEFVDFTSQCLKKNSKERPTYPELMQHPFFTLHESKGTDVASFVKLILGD

off-target kinases [3] = molecular target: off-target kinases (Homo sapiens, UniProt Q15759); settings: MAPK11 (p38 beta), ZLYTE, ATP Km app
off-target kinases (Homo sapiens, UniProt Q15759), sequence (Q15759 whole entry): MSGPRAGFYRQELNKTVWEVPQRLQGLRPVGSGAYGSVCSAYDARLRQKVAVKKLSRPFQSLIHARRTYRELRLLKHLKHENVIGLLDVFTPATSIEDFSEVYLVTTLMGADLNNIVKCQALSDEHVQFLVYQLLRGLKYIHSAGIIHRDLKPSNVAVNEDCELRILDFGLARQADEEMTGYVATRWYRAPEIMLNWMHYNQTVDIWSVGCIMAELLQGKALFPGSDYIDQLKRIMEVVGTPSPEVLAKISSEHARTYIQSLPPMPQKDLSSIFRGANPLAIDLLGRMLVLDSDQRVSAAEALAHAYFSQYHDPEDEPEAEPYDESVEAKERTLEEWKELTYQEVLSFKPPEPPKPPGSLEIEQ

off-target kinases [4] = molecular target: off-target kinases (Homo sapiens, UniProt P17252); settings: PRKCA (PKC alpha), ZLYTE, ATP Km app

Q: How did the inhibition (off-target kinases [1]; read-out: % Inhibition 1) turn out when `N#Cc1cc(-c2ncnc(Nc3ccc(N4CCN(C5COC5)CC4)cc3)n2)ccc1OC1CCOCC1` [Compound 1, 5-(4-((4-(4-(oxetan-3-yl)piperazin-1-yl)phenyl)amino)-1,3,5-triazin-2-yl)-2-((tetrahydro-2H-pyran-4-yl)oxy)benzonitrile] was run?
A: The inhibition was 14%.

Q: What about the inhibition (off-target kinases [1]; read-out: % Inhibition 2) of the same compound?
A: Its inhibition is 17%.

Q: And the inhibition (off-target kinases [1]; read-out: % Inhibition Avg)?
A: The inhibition was 16%.

Q: And the inhibition (off-target kinases [2]; MAP2K6 (MKK6), LanthaScreen Binding, read-out: % Inhibition 2)?
A: The inhibition was 4%.

Q: What about the inhibition (off-target kinases [2]; MAP2K6 (MKK6), LanthaScreen Binding, read-out: % Inhibition Avg) of the same compound?
A: Its inhibition is 1%.

Q: What about the inhibition (off-target kinases [2]; MAP2K6 (MKK6), ZLYTE, ATP 100, read-out: % Inhibition 1) of the same compound?
A: The inhibition was 0%.

Q: And the inhibition (off-target kinases [2]; MAP2K6 (MKK6), ZLYTE, ATP 100, read-out: % Inhibition 2)?
A: Its inhibition is 19%.

Q: And the inhibition (off-target kinases [2]; MAP2K6 (MKK6), ZLYTE, ATP 100, read-out: % Inhibition Avg)?
A: The inhibition was 9%.

Q: And the inhibition (off-target kinases [2]; read-out: % Inhibition 1)?
A: The inhibition was -2%.

Q: What about the inhibition (off-target kinases [3]; read-out: % Inhibition 1) of the same compound?
A: Its inhibition is 6%.

Q: What about the inhibition (off-target kinases [3]; read-out: % Inhibition 2) of the same compound?
A: Its inhibition is 4%.

Q: And the inhibition (off-target kinases [3]; read-out: % Inhibition Avg)?
A: Its inhibition is 5%.

Q: And the inhibition (off-target kinases [4]; read-out: % Inhibition 1)?
A: The inhibition was 0%.

Q: What about the inhibition (off-target kinases [4]; read-out: % Inhibition 2) of the same compound?
A: The inhibition was -5%.

Q: And the inhibition (off-target kinases [4]; read-out: % Inhibition Avg)?
A: The inhibition was -2%.
